Experimental findings from patent publication US11787812B2, “Substituted pyrazolo[4,3-d]pyrimidines and imidazo[5,1 -f][1,2,4]triazines as androgen receptor and phosphodiesterase dual inhibitors” (ILDONG PHARMACEUTICAL CO., LTD., priority 2020, dated 2023) are described below.

Like-named read-outs stand apart in the source and are kept apart here. Bounds are passed on as bounds.

In one assay the target is Human androgen receptors (Homo sapiens (Human), UniProt P10275, T878A). Briefly: Androgen receptor (AR) radioligand binding assay. As to the method: Methods employed in this study have been adapted from the following literature procedure.
Human androgen receptors obtained from human LNCaP cells are used in modified HEPES buffer pH 7.4. […] Non-specific binding is estimated in the presence of 1 μM testosterone. […] (See, e.g., Traish, A. M et al., Binding of 7α, 17α-dimethyl-19-nortestosterone (Mibolerone) to androgen and progesterone receptors in human and animal tissues. Endocrinology. 118(4): 1327-1333, 1986).
Compounds are screened at 10 μM.
Where presented, IC50 values were determined by a non-linear, least squares regression analysis using MathIQ™ (ID Business Solutions Ltd., UK).

The target in another assay is human PDE-5A1 (Homo sapiens (Human), UniProt O76074). Briefly: Human PDE-5A1 inhibition assay (fluorescence polarization, FAM-cGMP). The class given is biochemical. Particulars: human PDE5A1, 100 nM FAM-cGMP, 60 minutes room temperature. From the text: This example illustrates the in vitro inhibition of human PDE-5A1 by exemplary compounds of this disclosure (e.g., as described herein).
Sildenafil citrate (Catalog no. LKT-S3313, Axxora, San Diego, CA), Vardenafil hydrochloride trihydrate (Catalog no. SML2103, Sigma-Aldrich, St. Louis, MO), PDE Assay Buffer (Catalog no. 60393, BPS bioscience, San Diego, CA), PDE Binding Agent (Catalog no. 60390, BPS bioscience, San Diego, CA) and PDE Binding Agent Diluent (cGMP, Catalog no. 60392, BPS bioscience, San Diego, CA) were used for assays. Test compounds were supplied by Ildong Pharmaceuticals Co., Ltd.
The serial dilution of the compounds was first performed in 100% DMSO with the highest concentration at 1 mM and 0.1 mM. Each intermediate compound dilution (in 100% DMSO) will then get directly diluted 10× fold into assay buffer for 10% DMSO and 5 μL of the dilution was added to a 50 μL reaction so that the final concentration of DMSO is 1% in all reactions.
The enzymatic reactions were conducted at room temperature for 60 minutes in a 50 μL mixture containing PDE assay buffer, 100 nM FAM-cGMP, a PDE enzyme (Table 2) and the test compounds.
After enzymatic reaction, 100 μL of a binding solution (1:100 dilution of the binding agent with the binding agent diluent) was added to each reaction and the reaction was performed at room temperature for 60 minutes.
Fluorescence intensity was measured at excitation of 485 nm and an emission of 528 nm using a Tecan Infinite M1000 microplate reader.
PDE activity assays were performed in duplicate at each concentration. Fluorescence intensity is converted to fluorescence polarization using the Tecan Magellan6 software. The fluorescence polarization (FPt) in absence of the compound in each data set was defined as 100% activity. In the absence of PDE and the compound, the value fluorescent polarization (FPb) in each data set was defined as 0% activity. The percent activity in the presence of compound was calculated according to Equation 1:
[formula] where FP=the fluorescence polarization in the presence of the compound.
The values of % activity versus a series of compound concentrations were then plotted using non-linear regression analysis of Sigmoidal dose-response curve generated with Equation 2:
[formula] where Y=percent activity, B=minimum percent activity, T=maximum percent activity, X=logarithm of compound, and Hill Slope=slope factor or Hill coefficient. The IC50 value was determined by the concentration causing a half-maximal percent activity. Results
(Polarisation of emitted light reports the rotation of a fluorescent probe.)

The next assay deals with androgen receptor (AR) (Homo sapiens (Human), UniProt P10275). Briefly: Androgen receptor (AR) reporter assay, antagonist screen activated by R1881. The class given is cell-based. The conditions noted are these: AR-UAS-bla GripTite 293 cells, antagonist mode, R1881 at EC80. The procedure: The protocols and results of this Example were carried out and obtained by Thermofisher Scientific.
Test compounds were received at 1000× (or greater) of the desired starting concentration in 100% DMSO. If compounds were supplied at greater that 1000× concentration, an initial dilution is made in 100% DMSO to bring the compounds to 1000× concentration. The 1000× test compounds were serially diluted (10 point ½-log increments) in 100% DMSO.
The Substrate Loading Solution consists of three Life Technologies reagents: Solution A (10 mM LiveBLAzer™-FRET B/G Substrate), Solution B and Solution C.
Androgen Receptor (AR)—Antagonist Screen, Activated by R1881
AR-UAS-bla GripTite™ 293 cells were thawed and resuspended in Assay Media (DMEM phenol red free, 2% CD-treated FBS, 0.1 mM NEAA, 1 mM Sodium Pyruvate, 100 U/mL/100 μg/mL Pen/Strep) to a concentration of 312,500 cells/mL. 4 μL of a 10× serial dilution of Cyproterone Acetate (control antagonist starting concentration, 3,160 nM) or compounds are added to appropriate wells of a Poly-D-Lysine assay plate. 32 μL of cell suspension was added to the wells and pre-incubated at 37° C./5% CO2 in a humidified incubator with compounds and control antagonist titration for 30 minutes. 4 μL of 10× control agonist R1881 at the pre-determined EC80 concentration was added to wells containing the control antagonist or compounds. The plate was incubated for 16-24 hours at 37° C./5% CO2 in a humidified incubator. 8 μL of 1 μM Substrate Loading Solution is added to each well and the plate was incubated for 2 hours at room temperature. The plate was read on a fluorescence plate reader (Tecan Safire^2).
A general note: A reporter such as luciferase makes a cellular process visible.

[1] abbreviates: receptors from human LNCaP cells, 0.5 nM [3H]Methyltrienolone, 20 hours at 4° C., read-out: AR IC50.

Chain of Human androgen receptors (P10275 whole entry T878A): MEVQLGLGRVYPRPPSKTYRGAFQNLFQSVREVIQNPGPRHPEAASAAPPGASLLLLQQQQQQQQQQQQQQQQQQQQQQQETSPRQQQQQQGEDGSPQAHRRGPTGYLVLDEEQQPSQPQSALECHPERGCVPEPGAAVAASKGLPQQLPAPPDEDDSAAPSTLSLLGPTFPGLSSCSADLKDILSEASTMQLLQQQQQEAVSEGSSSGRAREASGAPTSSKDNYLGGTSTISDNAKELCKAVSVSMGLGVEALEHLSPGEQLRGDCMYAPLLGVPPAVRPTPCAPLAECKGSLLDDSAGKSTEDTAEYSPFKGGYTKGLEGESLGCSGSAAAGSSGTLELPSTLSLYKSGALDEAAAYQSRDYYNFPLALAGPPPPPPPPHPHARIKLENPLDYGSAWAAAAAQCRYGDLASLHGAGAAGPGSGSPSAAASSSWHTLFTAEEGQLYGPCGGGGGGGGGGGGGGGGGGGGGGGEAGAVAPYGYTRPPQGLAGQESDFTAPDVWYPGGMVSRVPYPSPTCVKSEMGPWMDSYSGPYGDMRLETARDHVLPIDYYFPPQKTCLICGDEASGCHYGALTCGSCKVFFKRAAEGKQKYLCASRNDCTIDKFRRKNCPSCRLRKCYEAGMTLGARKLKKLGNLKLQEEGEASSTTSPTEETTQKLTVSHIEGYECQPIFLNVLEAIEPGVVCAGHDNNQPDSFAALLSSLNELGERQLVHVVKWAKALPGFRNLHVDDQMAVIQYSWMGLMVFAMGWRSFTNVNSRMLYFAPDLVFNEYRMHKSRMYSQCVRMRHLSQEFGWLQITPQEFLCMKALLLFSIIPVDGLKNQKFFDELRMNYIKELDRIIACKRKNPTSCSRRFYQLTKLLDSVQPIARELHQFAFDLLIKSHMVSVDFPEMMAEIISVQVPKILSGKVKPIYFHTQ
Chain of androgen receptor (AR) (P10275 other isoform, or with tags, fused parts or gaps): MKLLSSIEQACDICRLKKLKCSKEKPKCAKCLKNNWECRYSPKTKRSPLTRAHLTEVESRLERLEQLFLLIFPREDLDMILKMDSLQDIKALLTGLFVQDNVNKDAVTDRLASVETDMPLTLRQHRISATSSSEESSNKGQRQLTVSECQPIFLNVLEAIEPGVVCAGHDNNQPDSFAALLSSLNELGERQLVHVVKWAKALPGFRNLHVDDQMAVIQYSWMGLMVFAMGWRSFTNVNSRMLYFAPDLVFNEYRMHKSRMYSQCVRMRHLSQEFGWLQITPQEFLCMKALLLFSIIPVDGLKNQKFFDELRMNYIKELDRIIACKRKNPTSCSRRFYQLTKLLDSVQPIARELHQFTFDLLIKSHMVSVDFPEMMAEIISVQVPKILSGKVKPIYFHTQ

By IC50 is commonly meant the point on the concentration scale where inhibition reaches its midpoint. As to `CCCc1nc(C)c2c(=O)[nH]c(-c3cc(N4C(=S)N(c5ccc(C#N)c(C(F)(F)F)c5)C(=O)C45CCOC5)ccc3OCC)nn12` (stereo not drawn) [Compound 34, 4-(1-(4-ethoxy-3-(5-methyl-4-oxo-7-propyl-3,4-dihydroimidazo[5,1-f][1,2,4]triazin-2-yl)phenyl)-4-oxo-2-thioxo-7-oxa-1,3-diazaspiro[4.4]nonan-3-yl)-2-(trifluoromethyl)benzonitrile], the IC50 at Human androgen receptors was 0.05 to 0.2 µM; at human PDE-5A1, not above 10 nM; at androgen receptor (AR), not above 0.5 µM.

For `CCCc1nc(C)c2c(=O)[nH]c(-c3cc(N4C(=S)N(c5ccc(C#N)c(C(F)(F)F)c5F)C(=O)C4(C)C)ccc3OCC)nn12` [Compound 47, 4-(3-(4-ethoxy-3-(5-methyl-4-oxo-7-propyl-3,4-dihydroimidazo[5,1-f][1,2,4]triazin-2-yl)phenyl)-4,4-dimethyl-5-oxo-2-thioxoimidazolidin-1-yl)-3-fluoro-2-(trifluoromethyl)benzonitrile], the IC50 is less than 0.05 µM at Human androgen receptors (setting [1]), not above 10 nM against human PDE-5A1 and not above 0.5 µM on androgen receptor (AR).

As for `CCCc1nn(C)c2c(=O)[nH]c(-c3cc(N4C(=S)N(c5cnc(C#N)c(C(F)(F)F)c5)C(=O)C4(C)C)ccc3OCC)nc12` [Compound 19, 5-(3-(4-ethoxy-3-(1-methyl-7-oxo-3-propyl-6,7-dihydro-1H-pyrazolo[4,3-d]pyrimidin-5-yl)phenyl)-4,4-dimethyl-5-oxo-2-thioxoimidazolidin-1-yl)-3-(trifluoromethyl)picolinonitrile], the IC50 is more than 0.2 µM at Human androgen receptors (setting [1]), more than 100 nM at human PDE-5A1 and 0.5 to 1 µM at androgen receptor (AR).

For the compound `CCCc1nc(C)c2c(=O)[nH]c(-c3cc(N4C(=S)N(c5ccc(C#N)c(C(F)(F)F)c5F)C(=O)C45CCOC5)ccc3OCC)nn12` (stereo not drawn) [Compound 49, 4-(1-(4-ethoxy-3-(5-methyl-4-oxo-7-propyl-3,4-dihydroimidazo[5,1-f][1,2,4]triazin-2-yl)phenyl)-4-oxo-2-thioxo-7-oxa-1,3-diazaspiro[4.4]nonan-3-yl)-3-fluoro-2-(trifluoromethyl)benzonitrile], the IC50 was less than 0.05 µM on Human androgen receptors (setting [1]), not above 10 nM at human PDE-5A1 and 0.5 to 1 µM at androgen receptor (AR).

Take `CCCc1nc(C)c2c(=O)[nH]c(-c3cc(N4C(=S)N(c5ccc(C#N)c(C(F)(F)F)c5)C(=O)C45CCCC5)ccc3OCC)nn12` [Compound 38, 4-(1-(4-ethoxy-3-(5-methyl-4-oxo-7-propyl-3,4-dihydroimidazo[5,1-f][1,2,4]triazin-2-yl)phenyl)-4-oxo-2-thioxo-1,3-diazaspiro[4.4]nonan-3-yl)-2-(trifluoromethyl)benzonitrile]: the IC50 on Human androgen receptors (setting [1]) is less than 0.05 µM; against human PDE-5A1 it was not above 10 nM; at androgen receptor (AR) it was not above 0.5 µM.

Regarding `CCCc1nc(C)c2c(=O)[nH]c(-c3cc(N4C(=S)N(c5ccc(C#N)c(C(F)(F)F)c5)C(=O)C4C)ccc3OCC)nn12` (stereo not drawn) [Compound 26, 4-(3-(4-ethoxy-3-(5-methyl-4-oxo-7-propyl-3,4-dihydroimidazo[5,1-f][1,2,4]triazin-2-yl)phenyl)-4-methyl-5-oxo-2-thioxoimidazolidin-1-yl)-2-(trifluoromethyl)benzonitrile], the IC50 was more than 0.2 µM on Human androgen receptors (setting [1]), not above 10 nM on human PDE-5A1 and more than 0.1 µM against androgen receptor (AR).

For the compound `CCCc1nc(C)c2c(=O)[nH]c(-c3cc(S(=O)(=O)NC4CC(=O)N(c5ccc(C#N)c(C(F)(F)F)c5)C4)ccc3OCC)nn12` (stereo not drawn) [Compound 33, N-(1-(4-cyano-3-(trifluoromethyl)phenyl)-5-oxopyrrolidin-3-yl)-4-ethoxy-3-(5-methyl-4-oxo-7-propyl-3,4-dihydroimidazo[5,1-f][1,2,4]triazin-2-yl)benzenesulfonamide], the IC50 on Human androgen receptors (setting [1]) was more than 0.2 µM; against human PDE-5A1, not above 10 nM; on androgen receptor (AR) it was more than 0.1 µM.
